Laboratory results from the NIST ThermoML archive (doi:10.1021/acs.jced.5b00813).
± gives the expanded uncertainty stated by the source.

How the values were obtained:
[1] = xn = mol fraction of the nth substance listed; conditions: 298.15 K, 100 kPa, Liquid, Vibrating tube method
[2] = excess molar enthalpy (molar enthalpy of mixing); xn = mol fraction of the nth substance listed; conditions: 298.15 K, 100 kPa, Liquid, Calvet calorimetry
[3] = 298.15 K; 100 kPa; Liquid; Vibrating tube method
[4] = refractive index (Na D-line) (dimensionless); conditions: 298.15 K; 101.33 kPa; Liquid; Standard Abbe refractometry

## CCCC(=O)OC [methyl butanoate] + CCCCCCCC
[1]; x2 = 0
  mass density: 892.34 ± 1 kg/m3
[1]; x2 = 0.059
  mass density: 875.04 ± 1 kg/m3
[1]; x2 = 0.1109
  mass density: 860.65 ± 1 kg/m3
[1]; x2 = 0.152
  mass density: 849.82 ± 1 kg/m3
[1]; x2 = 0.2051
  mass density: 836.56 ± 1 kg/m3
[1]; x2 = 0.2557
  mass density: 824.52 ± 1 kg/m3
[1]; x2 = 0.2992
  mass density: 814.89 ± 1 kg/m3
[1]; x2 = 0.3501
  mass density: 803.53 ± 1 kg/m3
[1]; x2 = 0.4045
  mass density: 792.24 ± 1 kg/m3
[1]; x2 = 0.4516
  mass density: 782.9 ± 1 kg/m3
[1]; x2 = 0.4978
  mass density: 774.12 ± 1 kg/m3
[1]; x2 = 0.5469
  mass density: 765.18 ± 1 kg/m3
[1]; x2 = 0.5862
  mass density: 758.27 ± 1 kg/m3
[1]; x2 = 0.6551
  mass density: 746.75 ± 1 kg/m3
[1]; x2 = 0.6989
  mass density: 739.74 ± 1 kg/m3
[1]; x2 = 0.7471
  mass density: 732.42 ± 1 kg/m3
[1]; x2 = 0.7931
  mass density: 725.7 ± 1 kg/m3
[1]; x2 = 0.8428
  mass density: 718.65 ± 1 kg/m3
[1]; x2 = 0.9009
  mass density: 710.74 ± 1 kg/m3
[1]; x2 = 0.9367
  mass density: 706.37 ± 1 kg/m3
[1]; x2 = 0.9651
  mass density: 702.84 ± 1 kg/m3
[1]; x2 = 0.9655
  mass density: 702.79 ± 1 kg/m3
[2]; x2 = 0.0438
  excess molar enthalpy: 0.0509 ± 0.0012 kcal/mol
[2]; x2 = 0.0922
  excess molar enthalpy: 0.0987 ± 0.00215 kcal/mol
[2]; x2 = 0.144
  excess molar enthalpy: 0.144 ± 0.00311 kcal/mol
[2]; x2 = 0.1978
  excess molar enthalpy: 0.184 ± 0.00406 kcal/mol
[2]; x2 = 0.2521
  excess molar enthalpy: 0.218 ± 0.00478 kcal/mol
[2]; x2 = 0.3043
  excess molar enthalpy: 0.244 ± 0.00526 kcal/mol
[2]; x2 = 0.3543
  excess molar enthalpy: 0.264 ± 0.00574 kcal/mol
[2]; x2 = 0.403
  excess molar enthalpy: 0.278 ± 0.00598 kcal/mol
[2]; x2 = 0.4321
  excess molar enthalpy: 0.286 ± 0.00621 kcal/mol
[2]; x2 = 0.4779
  excess molar enthalpy: 0.291 ± 0.00621 kcal/mol
[2]; x2 = 0.5368
  excess molar enthalpy: 0.288 ± 0.00621 kcal/mol
[2]; x2 = 0.6033
  excess molar enthalpy: 0.276 ± 0.00598 kcal/mol
[2]; x2 = 0.676
  excess molar enthalpy: 0.251 ± 0.0055 kcal/mol
[2]; x2 = 0.757
  excess molar enthalpy: 0.21 ± 0.00454 kcal/mol
[2]; x2 = 0.8413
  excess molar enthalpy: 0.153 ± 0.00335 kcal/mol
[2]; x2 = 0.9231
  excess molar enthalpy: 0.0865 ± 0.00191 kcal/mol

## CCCC(=O)OC [methyl butanoate]
[3]
  mass density: 892.34 ± 1 kg/m3
[4]
  refractive index: 1.3845 ± 0.0005

## CC(C)CC(C)(C)C [2,2,4-trimethylpentane]
[3]
  mass density: 687.75 ± 1 kg/m3
[4]
  refractive index: 1.389 ± 0.0005

## CCCCC(=O)OC [methyl pentanoate]
[3]
  mass density: 884.84 ± 1 kg/m3
[4]
  refractive index: 1.3968 ± 0.0005

## CC(C)CC(C)(C)C [2,2,4-trimethylpentane] + COC(C)=O
[1]; x1 = 1
  mass density: 687.75 ± 1 kg/m3

## CCCCCCCC [octane] + CCCCC(=O)OC
[1]; x1 = 1
  mass density: 698.58 ± 1 kg/m3

## CCCC(=O)OC [methyl butanoate] + CC(C)CC(C)(C)C
[1]; x2 = 0
  mass density: 892.34 ± 1 kg/m3
[1]; x2 = 0.0344
  mass density: 881.71 ± 1 kg/m3
[1]; x2 = 0.0633
  mass density: 873.2 ± 1 kg/m3
[1]; x2 = 0.1096
  mass density: 860.1 ± 1 kg/m3
[1]; x2 = 0.1334
  mass density: 853.55 ± 1 kg/m3
[1]; x2 = 0.1539
  mass density: 848 ± 1 kg/m3
[1]; x2 = 0.2013
  mass density: 835.7 ± 1 kg/m3
[1]; x2 = 0.2471
  mass density: 824.1 ± 1 kg/m3
[1]; x2 = 0.2981
  mass density: 811.9 ± 1 kg/m3
[1]; x2 = 0.3973
  mass density: 789.58 ± 1 kg/m3
[1]; x2 = 0.441
  mass density: 780.3 ± 1 kg/m3
[1]; x2 = 0.5431
  mass density: 760 ± 1 kg/m3
[1]; x2 = 0.5901
  mass density: 751.22 ± 1 kg/m3
[1]; x2 = 0.6801
  mass density: 735.3 ± 1 kg/m3
[1]; x2 = 0.7243
  mass density: 727.9 ± 1 kg/m3
[1]; x2 = 0.8239
  mass density: 712.2 ± 1 kg/m3
[1]; x2 = 0.8708
  mass density: 705.2 ± 1 kg/m3
[1]; x2 = 0.8863
  mass density: 703.02 ± 1 kg/m3
[1]; x2 = 0.9158
  mass density: 698.8 ± 1 kg/m3
[1]; x2 = 0.9816
  mass density: 689.84 ± 1 kg/m3
[2]; x2 = 0.0389
  excess molar enthalpy: 0.0385 ± 0.000956 kcal/mol
[2]; x2 = 0.0858
  excess molar enthalpy: 0.0793 ± 0.00167 kcal/mol
[2]; x2 = 0.1367
  excess molar enthalpy: 0.119 ± 0.00263 kcal/mol
[2]; x2 = 0.1916
  excess molar enthalpy: 0.156 ± 0.00335 kcal/mol
[2]; x2 = 0.2446
  excess molar enthalpy: 0.186 ± 0.00406 kcal/mol
[2]; x2 = 0.2982
  excess molar enthalpy: 0.211 ± 0.00454 kcal/mol
[2]; x2 = 0.3481
  excess molar enthalpy: 0.23 ± 0.00502 kcal/mol
[2]; x2 = 0.3959
  excess molar enthalpy: 0.243 ± 0.00526 kcal/mol
[2]; x2 = 0.4256
  excess molar enthalpy: 0.251 ± 0.0055 kcal/mol
[2]; x2 = 0.4407
  excess molar enthalpy: 0.252 ± 0.0055 kcal/mol
[2]; x2 = 0.4767
  excess molar enthalpy: 0.254 ± 0.0055 kcal/mol
[2]; x2 = 0.5375
  excess molar enthalpy: 0.255 ± 0.0055 kcal/mol
[2]; x2 = 0.6052
  excess molar enthalpy: 0.246 ± 0.00526 kcal/mol
[2]; x2 = 0.6813
  excess molar enthalpy: 0.225 ± 0.00478 kcal/mol
[2]; x2 = 0.7629
  excess molar enthalpy: 0.189 ± 0.00406 kcal/mol
[2]; x2 = 0.8494
  excess molar enthalpy: 0.135 ± 0.00287 kcal/mol
[2]; x2 = 0.9353
  excess molar enthalpy: 0.0722 ± 0.00167 kcal/mol

## CCCC(=O)OC [methyl butanoate] + COC(C)=O
[1]; x1 = 0.0106
  mass density: 926.21 ± 1 kg/m3
[1]; x1 = 0.0564
  mass density: 923.86 ± 1 kg/m3
[1]; x1 = 0.1023
  mass density: 921.52 ± 1 kg/m3
[1]; x1 = 0.1361
  mass density: 919.91 ± 1 kg/m3
[1]; x1 = 0.203
  mass density: 916.91 ± 1 kg/m3
[1]; x1 = 0.2536
  mass density: 914.74 ± 1 kg/m3
[1]; x1 = 0.3054
  mass density: 912.64 ± 1 kg/m3
[1]; x1 = 0.4122
  mass density: 908.65 ± 1 kg/m3
[1]; x1 = 0.4511
  mass density: 907.3 ± 1 kg/m3
[1]; x1 = 0.5456
  mass density: 904.19 ± 1 kg/m3
[1]; x1 = 0.5906
  mass density: 902.8 ± 1 kg/m3
[1]; x1 = 0.6148
  mass density: 902.08 ± 1 kg/m3
[1]; x1 = 0.6958
  mass density: 899.76 ± 1 kg/m3
[1]; x1 = 0.7394
  mass density: 898.57 ± 1 kg/m3
[1]; x1 = 0.7873
  mass density: 897.29 ± 1 kg/m3
[1]; x1 = 0.8368
  mass density: 896.07 ± 1 kg/m3
[1]; x1 = 0.8884
  mass density: 894.85 ± 1 kg/m3
[1]; x1 = 0.9538
  mass density: 893.32 ± 1 kg/m3
[1]; x1 = 0.974
  mass density: 892.87 ± 1 kg/m3
[1]; x1 = 1
  mass density: 892.34 ± 1 kg/m3
[2]; x1 = 0.027
  excess molar enthalpy: 0.00526 ± 0.000239 kcal/mol
[2]; x1 = 0.0962
  excess molar enthalpy: 0.0127 ± 0.000478 kcal/mol
[2]; x1 = 0.1645
  excess molar enthalpy: 0.0198 ± 0.000478 kcal/mol
[2]; x1 = 0.226
  excess molar enthalpy: 0.0244 ± 0.000717 kcal/mol
[2]; x1 = 0.2888
  excess molar enthalpy: 0.0287 ± 0.000717 kcal/mol
[2]; x1 = 0.3478
  excess molar enthalpy: 0.0323 ± 0.000717 kcal/mol
[2]; x1 = 0.4002
  excess molar enthalpy: 0.0342 ± 0.000717 kcal/mol
[2]; x1 = 0.4437
  excess molar enthalpy: 0.0356 ± 0.000956 kcal/mol
[2]; x1 = 0.4822
  excess molar enthalpy: 0.0361 ± 0.000956 kcal/mol
[2]; x1 = 0.5276
  excess molar enthalpy: 0.0356 ± 0.000956 kcal/mol
[2]; x1 = 0.5725
  excess molar enthalpy: 0.0349 ± 0.000717 kcal/mol
[2]; x1 = 0.6268
  excess molar enthalpy: 0.033 ± 0.000717 kcal/mol
[2]; x1 = 0.6958
  excess molar enthalpy: 0.0292 ± 0.000717 kcal/mol
[2]; x1 = 0.7669
  excess molar enthalpy: 0.0239 ± 0.000717 kcal/mol
[2]; x1 = 0.8497
  excess molar enthalpy: 0.0165 ± 0.000478 kcal/mol
[2]; x1 = 0.9313
  excess molar enthalpy: 0.0086 ± 0.000239 kcal/mol

## CCCCC(=O)OC [methyl pentanoate] + CC(C)CC(C)(C)C
[1]; x2 = 0
  mass density: 884.84 ± 1 kg/m3
[1]; x2 = 0.0537
  mass density: 871.44 ± 1 kg/m3
[1]; x2 = 0.1588
  mass density: 846.38 ± 1 kg/m3
[1]; x2 = 0.2505
  mass density: 825.53 ± 1 kg/m3
[1]; x2 = 0.3544
  mass density: 803.1 ± 1 kg/m3
[1]; x2 = 0.4518
  mass density: 783.06 ± 1 kg/m3
[1]; x2 = 0.4984
  mass density: 773.84 ± 1 kg/m3
[1]; x2 = 0.5417
  mass density: 765.44 ± 1 kg/m3
[1]; x2 = 0.642
  mass density: 746.75 ± 1 kg/m3
[1]; x2 = 0.6854
  mass density: 738.97 ± 1 kg/m3
[1]; x2 = 0.7425
  mass density: 728.98 ± 1 kg/m3
[1]; x2 = 0.7967
  mass density: 719.79 ± 1 kg/m3
[1]; x2 = 0.8148
  mass density: 716.75 ± 1 kg/m3
[1]; x2 = 0.8415
  mass density: 712.32 ± 1 kg/m3
[1]; x2 = 0.8779
  mass density: 706.53 ± 1 kg/m3
[1]; x2 = 0.8999
  mass density: 702.99 ± 1 kg/m3
[1]; x2 = 0.9409
  mass density: 696.52 ± 1 kg/m3
[2]; x2 = 0.0438
  excess molar enthalpy: 0.0344 ± 0.000956 kcal/mol
[2]; x2 = 0.0963
  excess molar enthalpy: 0.0672 ± 0.00143 kcal/mol
[2]; x2 = 0.1589
  excess molar enthalpy: 0.105 ± 0.00239 kcal/mol
[2]; x2 = 0.2206
  excess molar enthalpy: 0.137 ± 0.00287 kcal/mol
[2]; x2 = 0.2692
  excess molar enthalpy: 0.159 ± 0.00335 kcal/mol
[2]; x2 = 0.3311
  excess molar enthalpy: 0.177 ± 0.00382 kcal/mol
[2]; x2 = 0.3825
  excess molar enthalpy: 0.191 ± 0.00406 kcal/mol
[2]; x2 = 0.436
  excess molar enthalpy: 0.201 ± 0.0043 kcal/mol
[2]; x2 = 0.4818
  excess molar enthalpy: 0.207 ± 0.00454 kcal/mol
[2]; x2 = 0.5239
  excess molar enthalpy: 0.211 ± 0.00454 kcal/mol
[2]; x2 = 0.5638
  excess molar enthalpy: 0.212 ± 0.00454 kcal/mol
[2]; x2 = 0.5679
  excess molar enthalpy: 0.211 ± 0.00454 kcal/mol
[2]; x2 = 0.6024
  excess molar enthalpy: 0.208 ± 0.00454 kcal/mol
[2]; x2 = 0.6258
  excess molar enthalpy: 0.205 ± 0.0043 kcal/mol
[2]; x2 = 0.7031
  excess molar enthalpy: 0.189 ± 0.00406 kcal/mol
[2]; x2 = 0.7813
  excess molar enthalpy: 0.157 ± 0.00335 kcal/mol
[2]; x2 = 0.8452
  excess molar enthalpy: 0.121 ± 0.00263 kcal/mol
[2]; x2 = 0.9243
  excess molar enthalpy: 0.071 ± 0.00167 kcal/mol

## COC(C)=O [methyl ethanoate] + CCCC(=O)OC
[1]; x2 = 0
  mass density: 927.16 ± 1 kg/m3

## CC(C)CC(C)(C)C [2,2,4-trimethylpentane] + CCCC(=O)OC
[1]; x1 = 1
  mass density: 687.75 ± 1 kg/m3
